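Briefly, cells in 96-well plates were exposed to five compound concentrations for 48 h, and endpoints were estimated by linear interpolation. The concentration for full growth arrest is given as TGI.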
Assays:
Assay in all cases: NCI tumour cell line growth inhibition, 48 h
RXF 393 renal = system: RXF 393 renal
K-562 leukemia = system: K-562 leukemia
NCI-H23 lung = system: NCI-H23 lung
P388/ADR leukemia = system: P388/ADR leukemia
HCC-2998 colon = system: HCC-2998 colon
NCI-H226 lung = system: NCI-H226 lung
IGROV1 ovarian = system: IGROV1 ovarian
OVCAR-4 ovarian = system: OVCAR-4 ovarian
A498 renal = system: A498 renal
CAKI-1 renal = system: CAKI-1 renal
SF-539 CNS = system: SF-539 CNS
DMS 273 small cell lung = system: DMS 273 small cell lung
SF-295 CNS = system: SF-295 CNS
CCRF-CEM leukemia = system: CCRF-CEM leukemia
SK-OV-3 ovarian = system: SK-OV-3 ovarian
SW-620 colon = system: SW-620 colon
UACC-257 melanoma = system: UACC-257 melanoma
SK-MEL-2 melanoma = system: SK-MEL-2 melanoma
U251 CNS = system: U251 CNS
OVCAR-5 ovarian = system: OVCAR-5 ovarian
SK-MEL-28 melanoma = system: SK-MEL-28 melanoma
LOX IMVI melanoma = system: LOX IMVI melanoma
SNB-19 CNS = system: SNB-19 CNS
DLD-1 colon = system: DLD-1 colon
SNB-78 CNS = system: SNB-78 CNS
HOP-18 NSCLC = system: HOP-18 NSCLC
OVCAR-3 ovarian = system: OVCAR-3 ovarian
A549 NSCLC = system: A549 NSCLC
DMS 114 small cell lung = system: DMS 114 small cell lung
HCT-116 colon = system: HCT-116 colon
KM20L2 colon = system: KM20L2 colon
HCT-15 colon = system: HCT-15 colon
NCI/ADR-RES ovarian = system: NCI/ADR-RES ovarian
HT29 colon = system: HT29 colon
KM12 colon = system: KM12 colon
UACC-62 melanoma = system: UACC-62 melanoma
SK-MEL-5 melanoma = system: SK-MEL-5 melanoma
MOLT-4 leukemia = system: MOLT-4 leukemia
P388 leukemia = system: P388 leukemia
SN12C renal = system: SN12C renal
HOP-92 NSCLC = system: HOP-92 NSCLC
RPMI-8226 leukemia = system: RPMI-8226 leukemia
COLO 205 colon = system: COLO 205 colon
HL-60(TB) leukemia = system: HL-60(TB) leukemia
OVCAR-8 ovarian = system: OVCAR-8 ovarian
EKVX NSCLC = system: EKVX NSCLC
MALME-3M melanoma = system: MALME-3M melanoma
NCI-H460 lung = system: NCI-H460 lung
UO-31 renal = system: UO-31 renal
HOP-62 NSCLC = system: HOP-62 NSCLC
M19-MEL melanoma = system: M19-MEL melanoma
MCF7 breast = system: MCF7 breast
SF-268 CNS = system: SF-268 CNS
NCI-H522 lung = system: NCI-H522 lung
SN12K1 renal = system: SN12K1 renal
SNB-75 CNS = system: SNB-75 CNS

With `CCCCSCC(NC(=O)/C=C/c1c(C)[nH]c(=O)[nH]c1=O)C(=O)OC` (stereo unspecified) the TGI (RXF 393 renal) was 267 µM, the TGI (K-562 leukemia) was 367 µM and the TGI (NCI-H23 lung) was 339 µM. For the same compound, the TGI (P388/ADR leukemia) was > 450 µM, the TGI (HCC-2998 colon) was 132 µM and the TGI (NCI-H226 lung) was 291 µM. For the same compound, the TGI (IGROV1 ovarian) was 316 µM, the TGI (OVCAR-4 ovarian) was > 89 µM and the TGI (A498 renal) was 224 µM. The TGI (CAKI-1 renal) was 155 µM, the TGI (SF-539 CNS) was 254 µM and the TGI (DMS 273 small cell lung) was 264 µM. The TGI (SF-295 CNS) was 272 µM, the TGI (CCRF-CEM leukemia) was 245 µM and the TGI (SK-OV-3 ovarian) was 226 µM. The TGI (SW-620 colon) was 346 µM, the TGI (UACC-257 melanoma) was 235 µM and the TGI (SK-MEL-2 melanoma) was 121 µM. It also gave a TGI (U251 CNS) of 147 µM, a TGI (OVCAR-5 ovarian) of 300 µM and a TGI (SK-MEL-28 melanoma) of 317 µM. For the same compound, the TGI (LOX IMVI melanoma) was > 450 µM, the TGI (SNB-19 CNS) was 204 µM and the TGI (DLD-1 colon) was 275 µM. The TGI (SNB-78 CNS) was 303 µM, the TGI (HOP-18 NSCLC) was 330 µM and the TGI (OVCAR-3 ovarian) was 77.2 µM. For the same compound, the TGI (A549 NSCLC) was 401 µM, the TGI (DMS 114 small cell lung) was 271 µM and the TGI (HCT-116 colon) was 246 µM. The TGI (KM20L2 colon) was 355 µM, the TGI (HCT-15 colon) was > 450 µM and the TGI (NCI/ADR-RES ovarian) was > 450 µM. It also gave a TGI (HT29 colon) of 357 µM, a TGI (KM12 colon) of 157 µM and a TGI (UACC-62 melanoma) of 198 µM. It also gave a TGI (SK-MEL-5 melanoma) of 176 µM, a TGI (MOLT-4 leukemia) of 205 µM and a TGI (P388 leukemia) of 137 µM. The TGI (SN12C renal) was 269 µM, the TGI (HOP-92 NSCLC) was 189 µM and the TGI (RPMI-8226 leukemia) was 267 µM. For the same compound, the TGI (COLO 205 colon) was 112 µM, the TGI (HL-60(TB) leukemia) was 206 µM and the TGI (OVCAR-8 ovarian) was 246 µM. It also gave a TGI (EKVX NSCLC) of 188 µM, a TGI (MALME-3M melanoma) of 65.7 µM and a TGI (NCI-H460 lung) of 177 µM. For the same compound, the TGI (UO-31 renal) was 243 µM, the TGI (HOP-62 NSCLC) was 252 µM and the TGI (M19-MEL melanoma) was 191 µM. The TGI (MCF7 breast) was 114 µM, the TGI (SF-268 CNS) was 341 µM and the TGI (NCI-H522 lung) was 132 µM. It also gave a TGI (SN12K1 renal) of 173 µM and a TGI (SNB-75 CNS) of 241 µM.

— PubChem BioAssay (NCI)
